Data from PMC9241695, “Selective Metal Chelation by a Thiosemicarbazone Derivative Interferes with Mitochondrial Respiration and Ribosome Biogenesis in Candida albicans” (Microbiology Spectrum, 2022).
Converted amounts (≈) assume the structure as drawn.

Experiments:
[1] = test system: C. neoformans H99; test: Antifungal susceptibility testing, microbroth dilution MIC; format: cell-based; conditions: Cryptococcus neoformans, H99, 48 h, read-out: MIC (μg/mL) against fungi H99
Excerpt: (§1) Compound library. The thiosemicarbazone derivatives Triapine and COTI-2 were purchased from Med Chem Express (MCE). The other 87 thiosemicarbazones used in this study were previously synthesized by our collaborators (1, 2). Their structures are shown in Table 1 and Table S1 to help the reader clearly understand the relationship between structure and activity.
(§2) Strains and culture conditions. Clinically derived C. albicans isolates, including G5, F5, and Gu5, were kindly provided by Professor Joachim Morschhäuser of the University of Würzburg. Other clinical C. albicans isolates were kindly donated by Professor Qingguo Qi of Shandong University and Qianfoshan Hospital of Shandong Province Other Candida strains were obtained from Jinan Central Hospital.
(§3) The zap1 mutant and its complemented strain were kindly provided by Professor Aaron P. Mitchell of Carnegie Mellon University (3). The C. neoformans strains used in this study was kindly donated by Professor Guojian Liao of Southwest University and A. fumigatus strain used in this study was provided by Professor Ling Lu of Nanjing Normal University. […]
(§4) Antifungal susceptibility testing. To determine in vitro antifungal activities, the microbroth dilution method was carried out in RPMI1640 medium according to the guidelines of the Clinical and Laboratory Standards Institute (4, 5). The initial concentration in RPMI1640 medium was 1 × 10^3 CFU/mL for the C. albicans and C. neoformans suspensions but 1 × 10^4 CFU/mL for A. fumigatus. The range of final drug concentrations was 0.0156–64 μg/mL. The plates were incubated at35°C for 24 […]
(§5) h (for C. albicans, C. krusei, C. tropicalis, C. parapsilosis) or 48 h (for C. neoformans, A. fumigatus). The MIC was determined based on visible growth inhibition compared with the control. All experiments were performed in duplicate. […]

[2] = test system: A. fumigatus AF293; test: as above; format: cell-based; conditions: Aspergillus fumigatus, AF293, 48 h, read-out: MIC (μg/mL) against fungi AF293
Excerpt: as §1, §2, §3, §4, §5

[3] = test system: C. albicans SC5314; test: as above; format: cell-based; conditions: Candida albicans, SC5314, 24 h, read-out: MIC (μg/mL) against fungi SC5314
Excerpt: as §1, §2
as §3, with “University. Before in vitro and in vivo experiments, all C. albicans strains were grown on YPD agar plates. After culturing at 30°C for 24 h, colonies of each strain were cultured in liquid YPD medium at 30°C with continuous shaking” for “University.”
as §4, §5

[4] = test system: C. albicans SC5314; test: qPCR of genes associated with ribosome biogenesis; format: cell-based, Candida albicans; conditions: CPX 0.5 or 2 μg/mL 8 h; DFO 64 µg/mL 6 h; TPEN 0.05 or 0.2 μg/mL 6 h
Experimental: Determination of SOD activity. SOD activity was measured using the Superoxide Dismutase Activity Assay Kit (Njjcbio, Nanjing, China) following the manufacturer's instructions. An overnight culture of C. albicans SC5314 was adjusted to 1 × 10^7 cells/mL with RPMI1640 medium and treated with 19ak at a final concentration of 0, 0.125, 0.25, 0.5, or 1 μg/mL for 6 h. After collection by centrifugation, the cells were broken by glass beads in extraction buffer and centrifuged at 4°C. The absorbance of the supernatant of each sample was measured with a microplate reader at450 nm.
Determination of catalase (CAT) activity. CAT activity was measured by using a Catalase Assay Kit (Solarbio, Beijing, China) following the manufacturer's instructions. An overnight culture of C. albicans SC5314 was adjusted to 1 × 10^6 cells/mL with RPMI1640 medium and treated as described above for SOD activity.
The decomposition of H2O2 is directly accompanied by a decrease in absorbance at 240 nm, and the difference in absorbance per unit time (ΔA240) is a measure of […]
Quantitative real-time polymerase chain reaction (qPCR) analysis. C. albicans SC5314 cells (1 × 10^6 cells/mL) were incubated with or without 19ak (0.5,2 […]
Total RNA was extracted using the hot phenol method, and the RNA quality was analyzed using a spectrophotometer (Eppendorf, Hamburg, Germany). The RNA was converted to cDNA using a cDNA Reverse
Transcription kit (Accurate Biotechnology, Hunan, China). PCR detection based on SYBR Green was performed on an Eppendorf real-time PCR system (Eppendorf, […]
Drug resistance study. Drug resistance studies were carried out by repeatedly treating C. albicans with an antifungal agent followed by MIC determination using […]

SMILES | MIC [1] | MIC [2] | MIC [3] | Expression of genes associated with ribosome biogenesis (qPCR) [4]
S=C(N/N=C(\c1ccccc1)c1ccccn1)Nc1ccccc1Br [Compound 19x] | 0.5 µg/mL (≈ 1.22 µM) | 16 µg/mL (≈ 38.9 µM) | 1 µg/mL (≈ 2.43 µM) | 
C/C(=N\NC(=S)Nc1cccc(Br)c1)c1ccccn1 [Compound 19q] | 0.25 µg/mL (≈ 0.716 µM) | 1 µg/mL (≈ 2.86 µM) | 0.5 µg/mL (≈ 1.43 µM) | 
C/C(=N\NC(=S)Nc1ccccc1Br)c1ccccn1 [Compound 19r] | 8 µg/mL (≈ 22.9 µM) | 8 µg/mL (≈ 22.9 µM) | 1 µg/mL (≈ 2.86 µM) | 
Cc1cc(C2CCCCC2)n(O)c(=O)c1 [CPX, ciclopirox olamine] |  |  |  | no obvious effect
CCC/C(=N\NC(=S)Nc1ccccc1Br)c1ccccn1 [Compound 19v] | 0.25 µg/mL (≈ 0.663 µM) | 4 µg/mL (≈ 10.6 µM) | 1 µg/mL (≈ 2.65 µM) | 
CC(=O)N(O)CCCCCNC(=O)CCC(=O)N(O)CCCCCNC(=O)CCC(=O)N(O)CCCCCN [DFO, deferoxamine] |  |  |  | minor effects
S=C(N/N=C1\CCCc2cccnc21)N1CCN(c2ccccn2)CC1 [COTI-2, 4-(pyridine-2-yl)-N-([(8E)-5,6,7,8-tetrahydroquinolin-8-ylidene]amino) piperazine-1-carbothioamide, reference compound] | 0.0625 µg/mL (≈ 0.171 µM) | 1 µg/mL (≈ 2.73 µM) | 0.5 µg/mL (≈ 1.36 µM) | 
